Test results reported in patent US11986471B2, “Compounds and methods of use” (Tango Therapeutics, Inc., priority 2018, dated 2024).

How the values were obtained:
PRMT5 [1] = target: T1, PRMT5 (Homo sapiens, UniProt O14744); test: PRMT5 IC50 assay in the presence of SAM as cofactor; assay type: biochemical
T1 construct: purchased Viva (custom protein)
Procedure, shortened: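 Human PRMT5 inhibition, IC50 in μM; cofactor varied (SAM / MTA / none).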

PRMT5 [2] = target: T1, PRMT5; test: PRMT5 IC50 assay in the presence of MTA as cofactor; assay type: biochemical; conditions: for IC50: PRMT5, MTA as cofactor
Procedure, shortened: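 For the SAM-containing format, dividing IC50 by 1.5 yields Ki; for the MTA-containing format the divisor is 13.5. A third format without cofactor gives IC50 alone.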

HAP1 MTAP-intact = test: SDMA in-cell western assay, HAP1 MTAP-intact cell line; assay type: cell-based; conditions: Homo sapiens
Procedure, shortened: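 Potency reflects cellular SDMA reduction, detected by in-cell western, in HAP1 cells with or without MTAP (endogenous expression versus null).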

HAP1 MTAP-deleted = test: SDMA in-cell western assay, HAP1 MTAP-deleted cell line; assay type: cell-based; conditions: for IC50: Homo sapiens, HAP1 MTAP-deleted cell line; for MTAP Intact/Deleted Ratio: IC50 ratio HAP1 MTAP-intact / HAP1 MTAP-deleted
Procedure, shortened: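 These are IC50 values from an in-cell western measuring SDMA. The HAP1 cells used carry no MTAP, in contrast to the isogenic partner line with endogenous MTAP expression.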

PRMT5 [3] = target: T1, PRMT5; test: PRMT5 IC50 assay with no cofactor; assay type: biochemical
Procedure, shortened: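 Each compound is tested on PRMT5 in the presence of SAM, of MTA, and without any cofactor. Ki values are then back-calculated using fixed factors of 1.5 (SAM) and 13.5 (MTA), and the two Ki values are compared as a ratio.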

[4] = ratio between the Ki in the presence of SAM and the Ki in the presence of MTA
[5] = ratio between Ki in the presence of SAM and Ki in the presence of MTA

T1 sequence (O14744 whole entry): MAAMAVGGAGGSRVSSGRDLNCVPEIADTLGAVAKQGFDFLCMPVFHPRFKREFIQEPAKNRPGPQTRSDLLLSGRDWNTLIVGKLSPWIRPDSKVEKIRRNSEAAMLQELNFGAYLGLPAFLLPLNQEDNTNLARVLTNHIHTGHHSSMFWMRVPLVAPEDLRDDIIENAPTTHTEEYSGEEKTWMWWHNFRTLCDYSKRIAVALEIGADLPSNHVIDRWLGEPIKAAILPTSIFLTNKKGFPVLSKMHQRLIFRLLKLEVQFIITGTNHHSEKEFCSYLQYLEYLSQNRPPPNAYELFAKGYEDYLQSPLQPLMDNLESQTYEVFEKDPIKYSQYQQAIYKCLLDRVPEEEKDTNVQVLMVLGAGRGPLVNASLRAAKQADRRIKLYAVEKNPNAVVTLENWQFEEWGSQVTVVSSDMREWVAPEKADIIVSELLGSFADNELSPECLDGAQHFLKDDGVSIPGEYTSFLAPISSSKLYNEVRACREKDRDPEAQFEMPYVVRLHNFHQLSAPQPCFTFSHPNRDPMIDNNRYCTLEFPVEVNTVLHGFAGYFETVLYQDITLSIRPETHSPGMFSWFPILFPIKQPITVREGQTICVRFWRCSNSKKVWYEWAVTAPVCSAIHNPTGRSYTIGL
T1 sequence (Q9BQA1 whole entry partner): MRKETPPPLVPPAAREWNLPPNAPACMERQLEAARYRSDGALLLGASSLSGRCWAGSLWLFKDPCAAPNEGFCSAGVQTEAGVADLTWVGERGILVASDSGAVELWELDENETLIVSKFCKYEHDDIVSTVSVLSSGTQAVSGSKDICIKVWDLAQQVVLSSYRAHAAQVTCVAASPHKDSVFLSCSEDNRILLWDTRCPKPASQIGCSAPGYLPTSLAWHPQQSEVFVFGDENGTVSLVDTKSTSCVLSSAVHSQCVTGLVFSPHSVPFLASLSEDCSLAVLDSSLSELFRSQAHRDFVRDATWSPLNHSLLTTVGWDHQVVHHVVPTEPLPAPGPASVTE

| Structure (SMILES) | IC50 (PRMT5 [1]) | IC50 (PRMT5 [2]) | SAM/MTA Ratio (PRMT5 [2]; [4]) | IC50 (HAP1 MTAP-intact) | IC50 (HAP1 MTAP-deleted) | MTAP Intact/Deleted Ratio (HAP1 MTAP-deleted) | IC50 (PRMT5 [3]) | SAM/MTA Ratio (PRMT5 [2]; [5]) | IC50 (PRMT5 [3]; read-out: No Co-factor IC50) |
| --- | --- | --- | --- | --- | --- | --- | --- | --- | --- |
| Cc1ncoc1COc1cc(F)c2c(c1)CCN(C[C@@H](O)CNC(=O)c1ccnc(NC3CCC3)c1)C2 [Compound 506, 2-(cyclobutylamino)-N-[(2S)-3-[8-fluoro-6-[(4-methyloxazol-5-yl)methoxy]-3,4-dihydro-1H-isoquinolin-2-yl]-2-hydroxy-propyl]pyridine-4-carboxamide] | 50 to 500 nM | 50 to 500 nM | A (a Ki ratio greater than or equal to 10 fold between the Ki in the presence of SAM and the Ki in the presence of MTA) | ≥ 10000 nM | 1000 to 10000 nM | B* (an IC50 ratio greater than or equal to 3 fold but lower than 10 fold between the IC50 in the HAP1 MTAP-intact cell line and the HAP1 MTAP-deleted cell line) | ≥ 5000 nM | – | – |
| Cc1ncoc1COc1ccc2c(c1C)CCN(C[C@@H](O)CNC(=O)c1cc(NC3COC3)nc(N3CCOCC3)n1)C2 [Compound 423, N-[(2S)-2-hydroxy-3-{5-methyl-6-[(4-methyl-1,3-oxazol-5-yl)methoxy]-1,2,3,4-tetrahydroisoquinolin-2-yl}propyl]-2-(morpholin-4-yl)-6-[(oxetan-3-yl)amino]pyrimidine-4-carboxamide] | 500 to 5000 nM | 50 to 500 nM | – | ≥ 10000 nM | 1000 to 10000 nM | C* (an IC50 ratio of less than 3 fold between the IC50 in the HAP1 MTAP-intact cell line and the HAP1 MTAP-deleted cell line) | – | A (a Ki ratio greater than or equal to 10 fold between the Ki in the presence of SAM and the Ki in the presence of MTA) | ≥ 5000 nM |
| CC(=O)N1CC(Nc2cc(C(=O)NC[C@H](O)CN3CCc4cc(OCc5ocnc5C)ccc4C3)nc(C(C)C)n2)C1 [Compound 568, (S)-6-((1-acetylazetidin-3-yl)amino)-N-(2-hydroxy-3-(6-((4-methyloxazol-5-yl)methoxy)-3,4-dihydroisoquinolin-2(1H)-yl)propyl)-2-isopropylpyrimidine-4-carboxamide] | 50 to 500 nM | 50 to 500 nM | A (a Ki ratio greater than or equal to 10 fold between the Ki in the presence of SAM and the Ki in the presence of MTA) | 1000 to 10000 nM | < 1000 nM | C* (an IC50 ratio of less than 3 fold between the IC50 in the HAP1 MTAP-intact cell line and the HAP1 MTAP-deleted cell line) | 500 to 5000 nM | – | – |
| O=C(NC[C@H](O)CN1CCc2c(ccc(OCc3cnco3)c2Cl)C1)c1ccnc(NC2CCC(F)(F)CC2)c1 [Compound 425, (S)—N-(3-(5-chloro-6-(oxazol-5-ylmethoxy)-3,4-dihydroisoquinolin-2(1H)-yl)-2-hydroxypropyl)-2-((4N-difluorocyclohexyl)amino)isonicotinamide] | 50 to 500 nM | 50 to 500 nM | – | ≥ 10000 nM | ≥ 10000 nM | C* (an IC50 ratio of less than 3 fold between the IC50 in the HAP1 MTAP-intact cell line and the HAP1 MTAP-deleted cell line) | – | A (a Ki ratio greater than or equal to 10 fold between the Ki in the presence of SAM and the Ki in the presence of MTA) | ≥ 5000 nM |
| CC(=O)N1CCC(Nc2cc(C(=O)NC[C@H](O)CN3CCc4c(ccc(OCc5ccnn5C)c4C)C3)ncn2)CC1 [Compound 203] | 500 to 5000 nM | 500 to 5000 nM | – | ≥ 10000 nM | ≥ 10000 nM | C* (an IC50 ratio of less than 3 fold between the IC50 in the HAP1 MTAP-intact cell line and the HAP1 MTAP-deleted cell line) | – | A (a Ki ratio greater than or equal to 10 fold between the Ki in the presence of SAM and the Ki in the presence of MTA) | ≥ 5000 nM |
| Cc1c(OCc2cnco2)ccc2c1CCN(C[C@@H](O)CNC(=O)c1ccnc(NC3CCN(S(C)(=O)=O)CC3)c1)C2 [Compound 386, (S)—N-(2-hydroxy-3-(5-methyl-6-(oxazol-5-ylmethoxy)-3N-dihydroisoquinolin-2(1H)-yl)propyl)-2-((1-(methylsulfonyl)piperidin-4-yl)amino)isonicotinamide] | 50 to 500 nM | 50 to 500 nM | – | ≥ 10000 nM | 1000 to 10000 nM | C* (an IC50 ratio of less than 3 fold between the IC50 in the HAP1 MTAP-intact cell line and the HAP1 MTAP-deleted cell line) | – | A (a Ki ratio greater than or equal to 10 fold between the Ki in the presence of SAM and the Ki in the presence of MTA) | 500 to 5000 nM |
| CC(=O)N1CCC(Nc2cncc(C(=O)NC[C@H](O)CN3CCc4c(ccc(OCc5cnco5)c4C)C3)c2)CC1 [Compound 606, 5-[(1-acetylpiperidin-4-yl)amino]-N-[(2S)-2-hydroxy-3-{5-methyl-6-[(1,3-oxazol-5-yl)methoxy]-1,2,3,4-tetrahydroisoquinolin-2-yl}propyl]pyridine-3-carboxamide] | 50 to 500 nM | 50 to 500 nM | A (a Ki ratio greater than or equal to 10 fold between the Ki in the presence of SAM and the Ki in the presence of MTA) | ≥ 10000 nM | 1000 to 10000 nM | C* (an IC50 ratio of less than 3 fold between the IC50 in the HAP1 MTAP-intact cell line and the HAP1 MTAP-deleted cell line) | 500 to 5000 nM | – | – |
| CC(=O)N1CC(Nc2cc(C(=O)NC[C@H](O)CN3CCc4cc(OCc5ocnc5C)ccc4C3)nc(N3CCCCC3)n2)C1 [Compound 534, 6-[(1-acetylazetidin-3-yl)amino]-N-[(2S)-2-hydroxy-3-{6-[(4-methyl-1,3-oxazol-5-yl)methoxy]-1,2,3,4-tetrahydroisoquinolin-2-yl}propyl]-2-(piperidin-1-yl)pyrimidine-4-carboxamide] | 50 to 500 nM | < 50 nM | A (a Ki ratio greater than or equal to 10 fold between the Ki in the presence of SAM and the Ki in the presence of MTA) | 1000 to 10000 nM | < 1000 nM | A* (an IC50 ratio greater than or equal to 10 fold between the IC50 in the HAP1 MTAP-intact cell line and the HAP1 MTAP-deleted cell line) | 500 to 5000 nM | – | – |
| CCCC(=O)N1CC(Nc2cc(C(=O)NC[C@H](O)CN3CCc4cc(OCc5cnco5)ccc4C3)ccn2)C1 [Compound 434] | 50 to 500 nM | 50 to 500 nM | A (a Ki ratio greater than or equal to 10 fold between the Ki in the presence of SAM and the Ki in the presence of MTA) | 1000 to 10000 nM | < 1000 nM | C* (an IC50 ratio of less than 3 fold between the IC50 in the HAP1 MTAP-intact cell line and the HAP1 MTAP-deleted cell line) | ≥ 5000 nM | – | – |
| Cc1ncoc1COc1ccc2c(c1C)CCN(C[C@@H](O)CNC(=O)c1cc(CC(C)C)nc(NC3CCC3)c1)C2 [Compound 504, 2-(cyclobutylamino)-N-[(2S)-2-hydroxy-3-{5-methyl-6-[(4-methyl-1,3-oxazol-5-yl)methoxy]-1,2,3,4-trihydroisoquinolin-2-yl}propyl]-6-(2-methylpropyl)pyridine-4-carboxamide] | 50 to 500 nM | 50 to 500 nM | A (a Ki ratio greater than or equal to 10 fold between the Ki in the presence of SAM and the Ki in the presence of MTA) | ≥ 10000 nM | ≥ 10000 nM | C* (an IC50 ratio of less than 3 fold between the IC50 in the HAP1 MTAP-intact cell line and the HAP1 MTAP-deleted cell line) | ≥ 5000 nM | – | – |
| CC(C)C(=O)N1CCC(Nc2cc(C(=O)NC[C@H](O)CN3CCc4cc(OCc5cnco5)ccc4C3)ccn2)CC1 [Compound 458, N-[(2S)-2-hydroxy-3-[6-(oxazol-5-ylmethoxy)-3,4-dihydro-1H-isoquinolin-2-yl]propyl]-2-[[1-(2-methylpropanoyl)-4-piperidyl]amino]pyridine-4-carboxamide] | 50 to 500 nM | 50 to 500 nM | A (a Ki ratio greater than or equal to 10 fold between the Ki in the presence of SAM and the Ki in the presence of MTA) | 1000 to 10000 nM | < 1000 nM | C* (an IC50 ratio of less than 3 fold between the IC50 in the HAP1 MTAP-intact cell line and the HAP1 MTAP-deleted cell line) | 500 to 5000 nM | – | – |
| Cc1ncoc1COc1ccc2c(c1)CCN(C[C@@H](O)CNC(=O)c1cc(NC3CCC3)nc(N3CCOCC3)c1)C2 [Compound 384, 2-(cyclobutylamino)-N-[(2S)-2-hydroxy-3-{6-[(4-methyl-1,3-oxazol-5-yl)methoxy]-1,2,3,4-tetrahydroisoquinolin-2-yl}propyl]-6-(morpholin-4-yl)pyridine-4-carboxamide] | 50 to 500 nM | 50 to 500 nM | – | < 1000 nM | < 1000 nM | B* (an IC50 ratio greater than or equal to 3 fold but lower than 10 fold between the IC50 in the HAP1 MTAP-intact cell line and the HAP1 MTAP-deleted cell line) | – | A (a Ki ratio greater than or equal to 10 fold between the Ki in the presence of SAM and the Ki in the presence of MTA) | 500 to 5000 nM |
